In patent US5851782A, “Inhibitors of ceramidase” (Duke University, priority 1996, dated 1998):

Legend:
HL-60 cells [1] = test: Cell cycle analysis by propidium iodide flow cytometry; format: cell-based, human; conditions: HL-60, 5 μM, 48 h
Description: Proliferation and cell cycle studies. HL-60 human myelocytic leukemia cells (obtained from the American Type Culture Collection) were grown in RPMI 1640 medium containing 10 fetal calf serum at 37° C. in 5% CO2 incubator. For proliferation and cell cycle studies, cells were resuspended at a density of 2×10^5 cells/ml in serum-free media containing insulin (5 mg/liter) and transferrin (5 mg/liter) and sodium selenite (5 μg/liter) for 2-4 h. Cells were then treated with the indicated compounds. Ethanol concentration was always maintained at less than 0.1%. Cell proliferation was determined by counting cells using a hemacytometer, cell viability was evaluated by trypan blue dye exclusion, and cell cycle analysis was determined by propidium iodide flow cytometry as described (Chao et al, J. Biol. Chem. 267:23459 (1992)).

HL-60 cells [2] = test: Cellular metabolism of tritium-labeled compounds (TLC); format: cell-based, human; conditions: HL-60, 5 μM, TLC
Description: (§1) Metabolism studies. Lipids from cells treated with ^3 H-labeled compounds were extracted (Bligh & Dyer method), dried, resuspended in chloroform/methnol (10:1, v/v), and subjected to separation by TLC in chloroform/methanol (4:1, v/v). Spots containing radioactive compounds were scraped and radioactivity was measured using a scintillation counter.
(§2) Next, the metabolism of D- and L-e-MAPP was evaluated. To this end, organic lipids were extracted from cells treated with 5 μM D- or L-e-MAPP at the indicated time points (FIG. 5D), and lipids were resolved on TLC. […] On the other hand, L-e-MAPP underwent significant metabolism in a time-dependent fashion such that by 24 h, more than 70% of the L-e-MAPP taken up by cells was metabolized (FIG. 5, D and E). Two major breakdown products of L-e-MAPP were resolved by TLC. One metabolite co-migrated with […] and not with other neutral or polar lipids. The other metabolite (upper spot in FIG. 5D) comigrated with triacylglycerol.

alkaline ceramidase = test: Alkaline ceramidase activity in vitro at pH 9.0; format: biochemical, human; conditions: for use as substrate by alkaline ceramidase: 50 μM tritium-labeled substrate, HL-60 preparation
Description: Measurement of ceramidase activity in HL-60 cells. Ceramidase activity in HL-60 cells was measured by a modification of the method of Gatt and Yavin (Methods Enzymol. 14:139 (1969)). Cells were disrupted by sonication in 0.25M sucrose, 1 mM EDTA, and centrifuged at 10,000×g for 10 min after which the supernatant was centrifuged at 100,000×g for 60 min. Ten μl of 1 mM ceramide substrate ([^3 H]C16 -ceramide) was mixed with 100 μl of Triton X-100 (0.1%) in chloroform/methanol, 2:1, and 100 μl of 0.2% sodium cholate in chloroform/methanol, 2:1, after which the solvent was evaporated under N2 at 70° C. To this mixture, 30 μl of water was added and the tubes were heated for 5 s in an 80° C. water bath and then put on ice. Fifty μl of the appropriate buffer depending on desired pH was added followed by 20 μl of 50 mM MgCl2 and 100 μl of cell extract. In experiments using inhibitors, the desired inhibitor was added in ethanol either with the substrate or directly to the final solution. The reaction mixture was incubated for 1 h at 37° C. The ^3 H-fatty acid products of ceramidase were separated by the addition of 2 ml of Dole's solution (isopropyl alcohol, heptane, NaOH), 1.2 ml of heptane, and 1 ml of water. After vortexing and centrifugation, the upper phase was discarded and the lower phase was washed twice with heptane and the upper phase discarded each time. Finally, 1 ml of 1N H2 SO4, and 2 ml of heptane were added, and after vortexing and centrifugation the upper phase was transferred for counting by liquid scintillation.
In order to evaluate the interactions of D- and L-e-MAPP with ceramidase, in vitro studies we conducted using cytosolic and membrane fractions from HL-60 cells. Initially, ceramidase activity was examined for pH dependence using tritium-labeled C16 -ceramide as substrate. […] The alkaline ceramidase activity was very similar to that described in fibroblasts and cerebellar tissue (Sugita et al, Biochim. Biophys. Acta 398:125 (1975), Wertz and Downing, FEBS Lett. 268:110 (1990)). In initial studies, the ability of this ceramidase to utilize D-e- and L-e-MAPP as substrates was investigated. […] These studies corroborate the cellular metabolism studies showing that L-e-MAPP is a substrate for ceramidase in vitro and in cells.
Next, the ability of D- and L-e-MAPP to interfere with hydrolysis of C16 -ceramide by ceramidase at pH 4.5 and 9.0 was evaluated. Inhibition of ceramidase activity by D-e-MAPP was compared to that by N-oleoylethanolamine, a putative inhibitor of acid ceramidase (Sugita et al, Biochim. Biophys. Acta 398:125 (1975)). […] The effects of N-oleoylethanolamine are consistent with the previously reported Ki of 700 μM (Sugita et al, Biochim. Biophys. Acta 398:125 (1975)). […] In contrast, D-e-MAPP was a relatively poor inhibitor of acid ceramidase with less than 10% inhibition of acid ceramidase at 50 μM (FIG. 6C).

[3] = test system: endogenous ceramide levels in HL-60 cells; conditions: HL-60, TLC of ceramide phosphates
Description: (§3) Ceramide and diacylglycerol levels were measured on total liquid extracts using the diacylglycerol kinase assay (Jayadev et al, J. Biol. Chem. 270:2047 (1995)).
(§4) Therefore, HL-60 cells were treated with 5 μM D-e-MAPP, ethanol vehicle or L-e-MAPP for 0-24 h. At the indicated time points (FIG. 4A), total lipids were extracted and endogenous ceramide levels were measured by the Escherichia coli diacylglycerol kinase assay.
(§5) The upper spot of ceramide phosphate co-migrated with synthetic D-erythro-C18 dihydroceramide phosphate whereas the lower spot co-migrated with D-erythro-C18 ceramide phosphate.

[4] = test system: endogenous ceramide levels in HL-60 cells; test: cells; conditions: Homo sapiens, HL-60, 24 h, read-out: endogenous ceramide level relative to baseline
Description: as §3, §4, §5

acid ceramidase = molecular target: T1, acid ceramidase (Homo sapiens, UniProt Q13510); test: Acid ceramidase activity in vitro at pH 4.5; format: biochemical; design: Ceramidase activity was determined from total homogenates of HL-60 cells; endogenous in cells; host or cells: HL-60 cells; conditions: 50 μM
T1 sequence (Q13510 22-395): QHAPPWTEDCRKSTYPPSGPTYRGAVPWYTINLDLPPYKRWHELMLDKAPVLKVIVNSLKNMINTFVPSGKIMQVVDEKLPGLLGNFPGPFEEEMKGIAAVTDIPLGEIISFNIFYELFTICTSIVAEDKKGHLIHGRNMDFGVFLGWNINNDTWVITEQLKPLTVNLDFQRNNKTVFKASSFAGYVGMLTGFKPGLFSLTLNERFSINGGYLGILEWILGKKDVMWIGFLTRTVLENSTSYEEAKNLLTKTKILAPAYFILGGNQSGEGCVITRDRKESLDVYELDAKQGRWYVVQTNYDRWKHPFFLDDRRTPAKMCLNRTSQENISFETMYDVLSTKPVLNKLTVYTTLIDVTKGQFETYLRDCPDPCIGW
Description: Measurement of ceramidase activity in HL-60 cells. Ceramidase activity in HL-60 cells was measured by a modification of the method of Gatt and Yavin (Methods Enzymol. 14:139 (1969)). Cells were disrupted by sonication in 0.25M sucrose, 1 mM EDTA, and centrifuged at 10,000×g for 10 min after which the supernatant was centrifuged at 100,000×g for 60 min. Ten μl of 1 mM ceramide substrate ([^3 H]C16 -ceramide) was mixed with 100 μl of Triton X-100 (0.1%) in chloroform/methanol, 2:1, and 100 μl of 0.2% sodium cholate in chloroform/methanol, 2:1, after which the solvent was evaporated under N2 at 70° C. To this mixture, 30 μl of water was added and the tubes were heated for 5 s in an 80° C. water bath and then put on ice. Fifty μl of the appropriate buffer depending on desired pH was added followed by 20 μl of 50 mM MgCl2 and 100 μl of cell extract. In experiments using inhibitors, the desired inhibitor was added in ethanol either with the substrate or directly to the final solution. The reaction mixture was incubated for 1 h at 37° C. The ^3 H-fatty acid products of ceramidase were separated by the addition of 2 ml of Dole's solution (isopropyl alcohol, heptane, NaOH), 1.2 ml of heptane, and 1 ml of water. After vortexing and centrifugation, the upper phase was discarded and the lower phase was washed twice with heptane and the upper phase discarded each time. […]

[5] = Cellular metabolism of tritium-labeled compounds (TLC); format: cell-based, human; conditions: human, hl-60 cells; HL-60, 5 μM, by 24 h; read-out: fraction of compound taken up that was metabolized
Description: as §1, §2

| Compound | population of cells in G2/M phase (HL-60 cells [1]; from 10% untreated) | population of cells in S phase (HL-60 cells [1]; from 30% untreated) | population of cells in G0/G1 phase (HL-60 cells [1]; from 60% untreated) | metabolism in cells (HL-60 cells [2]) | use as substrate by alkaline ceramidase (alkaline ceramidase) | inhibition of alkaline ceramidase in vitro (alkaline ceramidase; final concentration of 5 μM) | IC50 (alkaline ceramidase; pH 9.0, 50 μM C16-ceramide substrate) | selectivity of increase, ceramide versus dihydroceramide [3] | fold induction at 5 µM [4] | inhibition at 50 µM (acid ceramidase) | effect on cell cycle progression (HL-60 cells [1]) | metabolised at 24 h, 5 µM [5] |
| --- | --- | --- | --- | --- | --- | --- | --- | --- | --- | --- | --- | --- |
| CCCCCCCCCCCCCC(=O)N[C@H](C)[C@@H](O)c1ccccc1 [D-e-MAPP, D-erythro-2-(N-myristolyamino)-1-phenyl-1-propanol] | 3% | 24% | 73% | showed little metabolism and remained intact | not substrate for the alkaline ceramidase | approximately 60% | 1 to 5 µM | selective increase in ceramide but not dihydroceramide levels | ~3 | < 10% | – | – |
| CCCCCCCCCCCCCC(=O)N[C@@H](C)[C@H](O)c1ccccc1 [L-e-MAPP, L-erythro-2-(N-myristolyamino)-1-phenyl-1-propanol] | – | – | – | – | readily hydrolyzed by ceramidase to a level equivalent to that seen with C16 -ceramide | – | – | – | – | – | largely without effect | > 70% |
